“And” between values parts separate entries of the source, which are not always exact repeats. Equal values may be shown once.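 Briefly, cells in 96-well plates were exposed to five compound concentrations for 48 h, and endpoints were estimated by linear interpolation. The concentration for 50% growth inhibition is given as GI50. The concentration for full growth arrest is given as TGI.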
How the values were obtained:
Assay in all cases: NCI tumour cell line growth inhibition, 48 h
[1] = tested on: MALME-3M melanoma
[2] = tested on: NCI-H226 lung
[3] = tested on: UACC-257 melanoma
[4] = tested on: MCF7 breast
[5] = tested on: UO-31 renal
[6] = tested on: OVCAR-8 ovarian
[7] = tested on: IGROV1 ovarian
[8] = tested on: SF-295 CNS
[9] = tested on: KM12 colon
[10] = tested on: NCI-H23 lung
[11] = tested on: OVCAR-5 ovarian
[12] = tested on: OVCAR-3 ovarian
[13] = tested on: HCT-116 colon
[14] = tested on: A549 NSCLC
[15] = tested on: HOP-18 NSCLC
[16] = tested on: HOP-92 NSCLC
[17] = tested on: SK-MEL-28 melanoma
[18] = tested on: LOX IMVI melanoma
[19] = tested on: P388 leukemia
[20] = tested on: SK-OV-3 ovarian
[21] = tested on: M19-MEL melanoma
[22] = tested on: SN12K1 renal
[23] = tested on: SK-MEL-5 melanoma
[24] = tested on: SF-268 CNS
[25] = tested on: SW-620 colon
[26] = tested on: DMS 273 small cell lung
[27] = tested on: COLO 205 colon
[28] = tested on: XF 498 CNS
[29] = tested on: SN12C renal
[30] = tested on: DLD-1 colon
[31] = tested on: RPMI-8226 leukemia
[32] = tested on: P388/ADR leukemia
[33] = tested on: SNB-75 CNS
[34] = tested on: SNB-78 CNS
[35] = tested on: CCRF-CEM leukemia
[36] = tested on: HCT-15 colon
[37] = tested on: SK-MEL-2 melanoma
[38] = tested on: HT29 colon
[39] = tested on: SNB-19 CNS
[40] = tested on: NCI-H460 lung
[41] = tested on: RXF 393 renal
[42] = tested on: MOLT-4 leukemia
[43] = tested on: UACC-62 melanoma
[44] = tested on: U251 CNS
[45] = tested on: HCC-2998 colon
[46] = tested on: HOP-62 NSCLC
[47] = tested on: EKVX NSCLC
[48] = tested on: NCI/ADR-RES ovarian
[49] = tested on: SF-539 CNS
[50] = tested on: K-562 leukemia
[51] = tested on: KM20L2 colon
[52] = tested on: A498 renal
[53] = tested on: CAKI-1 renal
[54] = tested on: OVCAR-4 ovarian
[55] = tested on: HL-60(TB) leukemia
[56] = tested on: NCI-H522 lung
[57] = tested on: SR leukemia
[58] = tested on: ACHN renal
[59] = tested on: RXF-631 renal
[60] = tested on: 786-0 renal
[61] = tested on: M14 melanoma
[62] = tested on: DMS 114 small cell lung
[63] = tested on: TK-10 renal
[64] = tested on: LXFL 529 NSCLC

COc1cc(/C=C(\C#N)C(N)=O)cc(Br)c1O
TGI [1]: > 100 µM
TGI [2]: > 100 µM
TGI [3]: > 100 µM
TGI [4]: > 100 µM
TGI [5]: > 100 µM
TGI [6]: > 100 µM
TGI [7]: > 100 µM
TGI [8]: > 100 µM
TGI [9]: > 100 µM
GI50 [10]: 43 µM and > 100 µM
TGI [10]: > 100 µM
TGI [11]: > 100 µM
TGI [12]: > 100 µM
TGI [13]: > 100 µM
TGI [14]: > 100 µM
TGI [15]: > 100 µM
GI50 [16]: 21.8 µM and > 100 µM
TGI [16]: 93.3 µM and > 100 µM
TGI [17]: > 100 µM
TGI [18]: 59.2 µM and > 100 µM
GI50 [19]: 85.3 µM and 44.5 µM
TGI [19]: > 100 µM
TGI [20]: > 100 µM
TGI [21]: > 100 µM
TGI [22]: > 100 µM
TGI [23]: > 100 µM
TGI [24]: > 100 µM
TGI [25]: > 100 µM
TGI [26]: > 100 µM
GI50 [27]: 73.8 µM and > 100 µM
TGI [27]: > 100 µM
TGI [28]: > 100 µM
GI50 [29]: > 100 µM and 34 µM
TGI [29]: > 100 µM
TGI [30]: > 100 µM
TGI [31]: > 100 µM
TGI [32]: > 100 µM
TGI [33]: 14.4 µM and > 100 µM
TGI [34]: > 100 µM
TGI [35]: > 100 µM
TGI [36]: > 100 µM
TGI [37]: > 100 µM
TGI [38]: > 100 µM
TGI [39]: > 100 µM
TGI [40]: > 100 µM
TGI [41]: > 100 µM
TGI [42]: > 100 µM
GI50 [43]: 35.9 µM and > 100 µM
TGI [43]: > 100 µM
TGI [44]: > 100 µM
TGI [45]: > 100 µM
TGI [46]: > 100 µM
GI50 [47]: 45.8 µM and > 100 µM
TGI [47]: > 100 µM
TGI [48]: > 100 µM
TGI [49]: > 100 µM
GI50 [50]: 32.1 µM and 43.2 µM
TGI [50]: > 100 µM
TGI [51]: > 100 µM
GI50 [52]: > 100 µM and 60.3 µM
TGI [52]: > 100 µM
TGI [53]: > 100 µM
TGI [54]: > 100 µM
GI50 [55]: 83.8 µM and 59.8 µM
TGI [55]: > 100 µM
GI50 [56]: 15.7 µM and 28.9 µM
TGI [56]: 35.4 µM and 87.3 µM

Cn1c(=O)c(C(c2ccc([N+](=O)[O-])cc2)c2c(O)c3ccccc3n(C)c2=O)cc2ccccc21 (stereo not given)
TGI [1]: 73.2 µM
TGI [2]: 64 µM
TGI [3]: 45.3 µM
TGI [5]: > 100 µM
TGI [6]: > 100 µM
TGI [7]: > 100 µM
TGI [8]: > 100 µM
TGI [9]: > 100 µM
TGI [10]: > 100 µM
TGI [11]: 92.7 µM
TGI [12]: > 100 µM
TGI [57]: > 100 µM
TGI [13]: > 100 µM
TGI [14]: > 100 µM
TGI [15]: > 100 µM
TGI [16]: > 100 µM
TGI [17]: > 100 µM
TGI [18]: > 100 µM
TGI [20]: > 100 µM
TGI [58]: > 100 µM
TGI [21]: > 100 µM
TGI [59]: > 100 µM
TGI [60]: > 100 µM
TGI [23]: > 100 µM
TGI [24]: > 100 µM
TGI [25]: > 100 µM
TGI [26]: > 100 µM
TGI [27]: > 100 µM
TGI [28]: > 100 µM
TGI [29]: > 100 µM
TGI [30]: > 100 µM
TGI [31]: > 100 µM
TGI [33]: 85.1 µM
TGI [34]: > 100 µM
TGI [36]: > 100 µM
TGI [61]: > 100 µM
TGI [37]: > 100 µM
TGI [38]: > 100 µM
TGI [62]: > 100 µM
TGI [39]: > 100 µM
TGI [40]: > 100 µM
TGI [41]: > 100 µM
TGI [63]: 84.7 µM
TGI [42]: > 100 µM
TGI [43]: 42.3 µM
TGI [44]: 66.8 µM
TGI [45]: > 100 µM
TGI [46]: 75.2 µM
TGI [47]: > 100 µM
TGI [49]: > 100 µM
TGI [50]: > 100 µM
TGI [51]: > 100 µM
TGI [53]: > 100 µM
TGI [64]: > 100 µM
TGI [54]: > 100 µM
TGI [55]: > 100 µM
TGI [56]: > 100 µM

CC1NC(=O)CC(c2ccccc2)N(N=O)C1c1ccccc1 (stereo not given)
TGI [1]: > 100 µM
TGI [2]: > 100 µM
TGI [3]: > 100 µM
TGI [4]: > 100 µM
TGI [5]: > 100 µM
TGI [6]: > 82.7 µM
TGI [7]: > 100 µM
TGI [8]: > 100 µM
TGI [9]: > 100 µM
TGI [10]: > 100 µM
TGI [11]: > 100 µM
TGI [12]: > 100 µM
TGI [13]: > 100 µM
TGI [14]: > 100 µM
TGI [15]: > 100 µM
TGI [16]: > 100 µM
TGI [17]: > 100 µM
TGI [18]: > 100 µM
TGI [19]: > 57.8 µM
TGI [20]: 62.6 µM
TGI [21]: > 100 µM
TGI [22]: 48.3 µM
TGI [23]: > 100 µM
TGI [24]: > 100 µM
TGI [25]: > 31.6 µM
TGI [26]: > 75.1 µM
TGI [27]: > 72.9 µM
TGI [28]: 75.3 µM
TGI [29]: > 100 µM
TGI [30]: > 100 µM
TGI [31]: 90.8 µM
TGI [32]: > 60.2 µM
TGI [33]: > 65.2 µM
TGI [34]: > 91.8 µM
TGI [35]: 71.6 µM
TGI [36]: > 100 µM
TGI [37]: > 85.9 µM
TGI [38]: > 100 µM
TGI [39]: > 91.3 µM
TGI [40]: > 90.2 µM
TGI [41]: 53.5 µM
TGI [42]: > 100 µM
TGI [43]: > 100 µM
TGI [44]: > 100 µM
TGI [45]: > 100 µM
TGI [46]: > 92.7 µM
TGI [47]: > 100 µM
TGI [48]: > 62.9 µM
TGI [49]: 48.4 µM
TGI [50]: > 88.5 µM
TGI [51]: 40 µM
TGI [52]: 52.3 µM
TGI [53]: > 100 µM
TGI [54]: > 87.5 µM
TGI [55]: > 67.2 µM
TGI [56]: 49.7 µM
